Experimental data published in PMC3382171 (PLoS ONE, 2012).

Experiments:
Assay in all cases: biochemical
Settings in all cases: read-out: Upstate KSS % inhibition at 1uM
PLK3 = PLK3 (Homo sapiens, UniProt Q9H4B4)
Description: (§1) In these selectivity assays the concentration of ATP was set to the Km value of ATP for each kinase tested to allow for a relative potency comparison between the various kinases. The compounds were tested at 1 µM final concentration. […] (A) Kinase selectivity screen (KSS) performed at Upstate Biotechnology. […] (B) KSS performed at University of Dundee (Division of Signal Transduction Therapy). […] (PDF) Click here for additional data file.

LCK = LCK (Homo sapiens, UniProt P06239)
Description: as §1

DDR2 = DDR2 (Homo sapiens, UniProt Q16832)
Description: as §1

HIPK2 = HIPK2 (Homo sapiens, UniProt Q9H2X6)
Description: as §1

Rse = target: T1, Rse (Homo sapiens, UniProt Q06418)
T1 construct: gene TYRO3
Description: as §1

PKD2 = target: T2, PKD2 (Homo sapiens, UniProt Q9BZL6)
T2 construct: gene PRKD2
T2 sequence (Q9BZL6 whole entry): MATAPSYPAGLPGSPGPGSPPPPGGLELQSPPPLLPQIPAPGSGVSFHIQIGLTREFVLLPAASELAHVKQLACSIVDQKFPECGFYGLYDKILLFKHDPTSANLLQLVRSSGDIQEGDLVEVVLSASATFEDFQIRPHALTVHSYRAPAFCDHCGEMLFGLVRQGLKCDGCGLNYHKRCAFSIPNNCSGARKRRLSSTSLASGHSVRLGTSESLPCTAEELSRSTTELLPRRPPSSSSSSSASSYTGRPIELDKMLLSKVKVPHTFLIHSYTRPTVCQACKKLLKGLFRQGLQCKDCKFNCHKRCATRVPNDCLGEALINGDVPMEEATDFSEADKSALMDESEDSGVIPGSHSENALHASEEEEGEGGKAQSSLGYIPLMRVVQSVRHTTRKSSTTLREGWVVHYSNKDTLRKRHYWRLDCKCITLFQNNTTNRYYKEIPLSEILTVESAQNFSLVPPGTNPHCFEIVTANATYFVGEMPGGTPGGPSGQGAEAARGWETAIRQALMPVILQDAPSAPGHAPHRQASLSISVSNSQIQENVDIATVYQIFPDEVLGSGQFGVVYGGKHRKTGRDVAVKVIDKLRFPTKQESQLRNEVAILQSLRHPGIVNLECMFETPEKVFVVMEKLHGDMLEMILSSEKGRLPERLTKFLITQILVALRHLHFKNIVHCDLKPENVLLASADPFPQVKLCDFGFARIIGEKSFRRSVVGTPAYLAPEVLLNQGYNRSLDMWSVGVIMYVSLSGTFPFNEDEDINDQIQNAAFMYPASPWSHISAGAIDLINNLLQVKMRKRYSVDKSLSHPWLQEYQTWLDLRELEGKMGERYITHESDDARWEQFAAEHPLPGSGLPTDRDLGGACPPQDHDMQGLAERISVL
Description: as §1

SAPK2b = target: T3, SAPK2b (Homo sapiens, UniProt Q15759)
T3 construct: gene MAPK11
T3 sequence (Q15759 whole entry): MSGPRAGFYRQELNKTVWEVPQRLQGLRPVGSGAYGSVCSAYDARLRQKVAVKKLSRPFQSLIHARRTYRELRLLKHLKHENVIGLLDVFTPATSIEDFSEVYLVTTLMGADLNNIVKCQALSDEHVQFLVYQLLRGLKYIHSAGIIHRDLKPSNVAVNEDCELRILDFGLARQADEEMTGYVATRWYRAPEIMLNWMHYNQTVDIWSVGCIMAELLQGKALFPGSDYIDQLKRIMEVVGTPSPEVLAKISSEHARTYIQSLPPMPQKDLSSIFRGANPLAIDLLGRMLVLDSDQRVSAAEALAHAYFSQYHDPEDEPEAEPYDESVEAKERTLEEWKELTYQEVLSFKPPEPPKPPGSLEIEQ
Description: as §1

IKKalpha = target: T4, IKKalpha (Homo sapiens, UniProt O15111)
T4 construct: gene CHUK
T4 sequence (O15111 whole entry): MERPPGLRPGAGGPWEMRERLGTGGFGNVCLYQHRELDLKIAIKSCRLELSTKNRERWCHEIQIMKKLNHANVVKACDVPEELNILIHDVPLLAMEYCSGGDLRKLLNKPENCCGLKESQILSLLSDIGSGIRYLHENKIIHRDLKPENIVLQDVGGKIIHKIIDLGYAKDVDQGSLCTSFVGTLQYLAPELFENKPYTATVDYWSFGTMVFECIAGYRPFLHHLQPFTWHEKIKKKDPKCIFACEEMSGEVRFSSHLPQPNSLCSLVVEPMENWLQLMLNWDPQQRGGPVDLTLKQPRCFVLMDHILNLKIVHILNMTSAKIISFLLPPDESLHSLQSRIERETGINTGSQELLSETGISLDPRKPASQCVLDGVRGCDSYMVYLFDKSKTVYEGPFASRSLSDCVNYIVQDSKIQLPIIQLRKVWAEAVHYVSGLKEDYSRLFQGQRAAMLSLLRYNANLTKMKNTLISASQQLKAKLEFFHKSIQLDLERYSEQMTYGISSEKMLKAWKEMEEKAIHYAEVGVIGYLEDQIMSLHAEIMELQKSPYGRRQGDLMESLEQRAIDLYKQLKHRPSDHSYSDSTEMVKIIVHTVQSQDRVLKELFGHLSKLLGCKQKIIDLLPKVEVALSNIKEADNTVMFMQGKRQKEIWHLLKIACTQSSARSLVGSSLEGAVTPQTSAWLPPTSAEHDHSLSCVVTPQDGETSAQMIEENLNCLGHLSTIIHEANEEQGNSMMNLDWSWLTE
Description: as §1

MRCKalpha = target: T5, MRCKalpha (Homo sapiens, UniProt Q5VT25)
T5 construct: gene CDC42BPA
Description: as §1

CaMKIV = target: T6, CaMKIV (Homo sapiens, UniProt Q16566)
T6 construct: gene CAMK4
Description: as §1

MKK6 = target: T7, MKK6 (Homo sapiens, UniProt P52564)
T7 construct: gene MAP2K6
Description: as §1

FGFR3 = FGFR3 (Homo sapiens, UniProt P22607)
Description: as §1

TSSK2 = TSSK2 (Homo sapiens, UniProt Q96PF2)
Description: as §1

DYRK2 = target: T8, DYRK2 (Homo sapiens, UniProt Q92630)
T8 sequence (Q92630 1-601): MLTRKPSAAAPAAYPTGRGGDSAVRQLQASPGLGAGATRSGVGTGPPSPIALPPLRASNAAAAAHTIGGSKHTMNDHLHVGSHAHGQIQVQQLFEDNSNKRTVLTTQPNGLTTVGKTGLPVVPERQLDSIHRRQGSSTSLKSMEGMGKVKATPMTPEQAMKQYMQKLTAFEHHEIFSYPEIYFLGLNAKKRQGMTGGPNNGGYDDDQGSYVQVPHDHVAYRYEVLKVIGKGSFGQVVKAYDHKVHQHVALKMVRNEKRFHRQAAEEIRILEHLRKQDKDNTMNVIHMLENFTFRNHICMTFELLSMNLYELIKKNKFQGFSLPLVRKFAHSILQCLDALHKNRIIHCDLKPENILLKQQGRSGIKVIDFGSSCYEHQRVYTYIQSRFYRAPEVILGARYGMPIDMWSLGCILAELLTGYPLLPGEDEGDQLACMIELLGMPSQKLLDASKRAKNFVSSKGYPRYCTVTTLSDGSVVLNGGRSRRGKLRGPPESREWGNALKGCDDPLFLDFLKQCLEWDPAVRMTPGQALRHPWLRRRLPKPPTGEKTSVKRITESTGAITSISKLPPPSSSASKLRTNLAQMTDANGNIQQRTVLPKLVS
Description: as §1

Yes = target: T9, Yes (Homo sapiens, UniProt P07947)
T9 construct: gene YES1
Description: as §1

PKCbeta = target: T10, PKCbeta (Homo sapiens, UniProt P05771)
T10 construct: gene PRKCB
T10 sequence (P05771 whole entry): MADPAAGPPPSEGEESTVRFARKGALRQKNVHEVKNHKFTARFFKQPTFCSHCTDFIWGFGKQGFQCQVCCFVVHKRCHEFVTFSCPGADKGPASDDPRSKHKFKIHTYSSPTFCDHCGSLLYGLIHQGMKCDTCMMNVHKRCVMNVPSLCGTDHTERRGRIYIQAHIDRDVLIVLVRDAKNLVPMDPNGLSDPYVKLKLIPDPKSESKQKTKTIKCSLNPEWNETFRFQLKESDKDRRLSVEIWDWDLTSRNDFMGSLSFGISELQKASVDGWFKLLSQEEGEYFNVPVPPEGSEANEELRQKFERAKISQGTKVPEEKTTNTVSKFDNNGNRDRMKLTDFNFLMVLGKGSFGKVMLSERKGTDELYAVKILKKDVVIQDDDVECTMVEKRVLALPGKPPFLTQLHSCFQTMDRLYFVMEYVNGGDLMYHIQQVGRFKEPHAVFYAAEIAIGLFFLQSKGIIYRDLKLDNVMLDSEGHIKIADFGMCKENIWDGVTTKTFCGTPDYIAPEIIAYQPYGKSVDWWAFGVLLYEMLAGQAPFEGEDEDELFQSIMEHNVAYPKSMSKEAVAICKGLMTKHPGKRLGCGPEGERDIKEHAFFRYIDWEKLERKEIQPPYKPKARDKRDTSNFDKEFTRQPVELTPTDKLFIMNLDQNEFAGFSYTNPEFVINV
Description: as §1

KDR = KDR (Homo sapiens, UniProt P35968)
Description: as §1

MAPK2 = target: T11, MAPK2 (Homo sapiens, UniProt P28482)
T11 construct: gene MAPK1
T11 sequence (P28482 whole entry): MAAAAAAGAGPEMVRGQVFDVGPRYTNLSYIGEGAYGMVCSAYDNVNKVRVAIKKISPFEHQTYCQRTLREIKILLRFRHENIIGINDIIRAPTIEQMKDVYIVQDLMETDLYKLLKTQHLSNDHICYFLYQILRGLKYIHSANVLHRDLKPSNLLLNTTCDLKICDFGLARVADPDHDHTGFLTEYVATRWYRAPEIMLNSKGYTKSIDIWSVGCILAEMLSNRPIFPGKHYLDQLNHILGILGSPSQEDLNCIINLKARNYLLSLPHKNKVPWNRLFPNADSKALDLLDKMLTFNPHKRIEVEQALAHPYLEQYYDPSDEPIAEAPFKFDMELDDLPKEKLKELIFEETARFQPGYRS
Description: as §1

CDK3/cyclinE = CDK3/cyclinE (Homo sapiens, UniProt Q00526)
Description: as §1

TrkB = target: T12, TrkB (Homo sapiens, UniProt Q16620)
T12 construct: gene NTRK2
Description: as §1

AXL = AXL (Homo sapiens, UniProt P30530)
Description: as §1

Arg = target: T13, Arg (Homo sapiens, UniProt P42684)
T13 construct: gene ABL2
Description: as §1

GSK3beta = target: T14, GSK3beta (Homo sapiens, UniProt P49841)
T14 construct: gene GSK3B
T14 sequence (P49841 whole entry): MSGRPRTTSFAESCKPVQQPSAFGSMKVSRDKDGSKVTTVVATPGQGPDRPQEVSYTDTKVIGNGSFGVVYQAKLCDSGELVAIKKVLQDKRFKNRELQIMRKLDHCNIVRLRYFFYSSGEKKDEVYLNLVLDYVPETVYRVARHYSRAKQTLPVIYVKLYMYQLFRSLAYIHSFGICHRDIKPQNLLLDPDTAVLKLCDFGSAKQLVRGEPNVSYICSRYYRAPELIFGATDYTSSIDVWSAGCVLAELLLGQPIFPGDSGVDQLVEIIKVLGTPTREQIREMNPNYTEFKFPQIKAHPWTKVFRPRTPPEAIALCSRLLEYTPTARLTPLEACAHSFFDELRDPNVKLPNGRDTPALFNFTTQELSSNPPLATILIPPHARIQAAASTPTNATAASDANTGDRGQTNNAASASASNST
Description: as §1

RIPK2 = RIPK2 (Homo sapiens, UniProt O43353)
Description: as §1

MEK1 = target: T15, MEK1 (Homo sapiens, UniProt Q02750)
T15 construct: gene MAP2K1
Description: as §1

JNK2alpha2 = target: T16, JNK2alpha2 (Homo sapiens, UniProt P45984)
T16 construct: gene MAPK9; isoform alpha2
Description: as §1

CDK1/cyclinB = CDK1/cyclinB (Homo sapiens, UniProt P06493)
Chain of CDK1/cyclinB (P06493 whole entry): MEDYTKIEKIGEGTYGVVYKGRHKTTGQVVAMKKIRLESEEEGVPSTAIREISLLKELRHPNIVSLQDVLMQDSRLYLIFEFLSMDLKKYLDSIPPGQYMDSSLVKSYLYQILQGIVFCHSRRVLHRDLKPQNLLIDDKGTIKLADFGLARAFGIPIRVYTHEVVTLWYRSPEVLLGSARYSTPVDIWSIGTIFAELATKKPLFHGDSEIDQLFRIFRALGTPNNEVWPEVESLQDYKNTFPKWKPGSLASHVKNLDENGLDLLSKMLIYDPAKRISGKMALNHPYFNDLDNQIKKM
Chain of CDK1/cyclinB (P14635 whole entry partner): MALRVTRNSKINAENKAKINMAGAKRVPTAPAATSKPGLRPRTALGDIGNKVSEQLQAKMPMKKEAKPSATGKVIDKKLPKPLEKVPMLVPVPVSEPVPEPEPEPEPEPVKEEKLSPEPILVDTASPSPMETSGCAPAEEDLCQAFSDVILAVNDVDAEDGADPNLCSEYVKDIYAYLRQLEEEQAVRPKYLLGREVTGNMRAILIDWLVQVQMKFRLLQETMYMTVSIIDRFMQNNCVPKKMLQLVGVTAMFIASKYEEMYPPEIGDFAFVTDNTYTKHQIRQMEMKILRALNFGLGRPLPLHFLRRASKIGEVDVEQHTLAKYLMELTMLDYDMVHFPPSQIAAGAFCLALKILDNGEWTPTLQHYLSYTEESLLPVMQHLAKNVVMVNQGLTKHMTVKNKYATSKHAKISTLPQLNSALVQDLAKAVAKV
Description: as §1

BTK = BTK (Homo sapiens, UniProt Q06187)
Chain of BTK (Q06187 whole entry): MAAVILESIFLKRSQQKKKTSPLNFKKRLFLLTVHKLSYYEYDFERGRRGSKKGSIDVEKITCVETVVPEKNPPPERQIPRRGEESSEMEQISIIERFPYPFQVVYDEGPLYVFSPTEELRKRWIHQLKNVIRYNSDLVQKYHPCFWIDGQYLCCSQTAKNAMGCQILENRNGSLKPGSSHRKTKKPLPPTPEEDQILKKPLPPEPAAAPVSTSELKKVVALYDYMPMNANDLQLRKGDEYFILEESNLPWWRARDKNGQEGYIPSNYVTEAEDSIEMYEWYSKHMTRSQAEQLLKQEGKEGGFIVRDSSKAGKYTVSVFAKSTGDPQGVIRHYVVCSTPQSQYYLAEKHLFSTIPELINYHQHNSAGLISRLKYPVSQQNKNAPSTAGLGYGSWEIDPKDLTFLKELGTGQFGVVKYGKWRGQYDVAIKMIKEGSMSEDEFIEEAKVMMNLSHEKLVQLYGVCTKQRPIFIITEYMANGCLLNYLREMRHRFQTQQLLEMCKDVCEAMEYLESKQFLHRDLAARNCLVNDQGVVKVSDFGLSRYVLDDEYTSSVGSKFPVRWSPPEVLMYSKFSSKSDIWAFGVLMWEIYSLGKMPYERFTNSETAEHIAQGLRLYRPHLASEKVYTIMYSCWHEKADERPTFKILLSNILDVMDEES
Description: as §1

## OCCn1cc(-c2cnc3nnn(Cc4ccc5ncccc5c4)c3n2)cn1 [METi, PF-04217903]
PLK3
  inhibition at 1 µM: -7%
LCK
  inhibition at 1 µM: -8%
DDR2
  inhibition at 1 µM: 0%
HIPK2
  inhibition at 1 µM: 8%
Rse
  inhibition at 1 µM: 4%
PKD2
  inhibition at 1 µM: 5%
SAPK2b
  inhibition at 1 µM: 1%
IKKalpha
  inhibition at 1 µM: -2%
MRCKalpha
  inhibition at 1 µM: 5%
CaMKIV
  inhibition at 1 µM: -4%
MKK6
  inhibition at 1 µM: -13%
FGFR3
  inhibition at 1 µM: -1%
TSSK2
  inhibition at 1 µM: 4%
DYRK2
  inhibition at 1 µM: -1%
Yes
  inhibition at 1 µM: 16%
PKCbeta
  inhibition at 1 µM: 0%
KDR
  inhibition at 1 µM: -9%
MAPK2
  inhibition at 1 µM: -7%
CDK3/cyclinE
  inhibition at 1 µM: 5%
TrkB
  inhibition at 1 µM: 10%
AXL
  inhibition at 1 µM: -11%
Arg
  inhibition at 1 µM: 10%
GSK3beta
  inhibition at 1 µM: -1%
RIPK2
  inhibition at 1 µM: 3%
MEK1
  inhibition at 1 µM: -11%
JNK2alpha2
  inhibition at 1 µM: -2%
CDK1/cyclinB
  inhibition at 1 µM: -7%
BTK
  inhibition at 1 µM: -13%
